Target: T1, human chemokine receptor 2 isoform B (Homo sapiens, UniProt P41597)
T1 construct: host or cells: CHOK1-CCR2B-A5 (CHO-K1)
T1 sequence (P41597 1-360 isoform P41597-2): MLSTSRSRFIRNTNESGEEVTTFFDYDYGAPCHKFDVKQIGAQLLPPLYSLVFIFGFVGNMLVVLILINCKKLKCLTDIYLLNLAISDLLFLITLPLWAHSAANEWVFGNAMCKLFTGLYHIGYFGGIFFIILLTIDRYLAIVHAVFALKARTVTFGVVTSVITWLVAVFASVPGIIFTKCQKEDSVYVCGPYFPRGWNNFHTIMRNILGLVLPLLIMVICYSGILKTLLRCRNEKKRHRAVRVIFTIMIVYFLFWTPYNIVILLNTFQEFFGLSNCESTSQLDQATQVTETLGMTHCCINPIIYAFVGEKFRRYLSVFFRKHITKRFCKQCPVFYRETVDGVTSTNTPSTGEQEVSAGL
Assay: Calcium mobilization assay (FLIPR, CHOK1-CCR2B-A5 cells, 20 nM MCP-1)
Format: cell-based
Settings: Ca mobilisation assay, CCR2, antagonist activity vs 20 nM MCP-1
Summary of the method: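 FLIPR Fluo-4 calcium readout in CHO-K1 cells stably overexpressing human CCR2B; compounds first monitored 80 s for agonist activity, then after 20-30 min at 30 °C challenged with 20 nM MCP-1. Response is max minus basal fluorescence; antagonist value is concentration giving 50% inhibition of specific calcium increase.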

| IC50 [nM] | Molecule |
| --- | --- |
| 546 | Cc1nc(C2CCN(CCCN3CCN(C(=O)/C=C/c4ccc(Cl)c(Cl)c4)CCC3=O)CC2)n[nH]1 [Example 58, 1-[(E)-3-(3,4-Dichloro-phenyl)-acryloyl]-4-{3-[4-(5-methyl-1H-[1,2,4]triazol-3-yl)-piperidin-1-yl]-propyl}-[1,4]diazepan-5-one] |
| 1390 | CC1C(O)CCCN1CCCN1CCN(C(=O)C=Cc2ccc(F)c(Cl)c2)CCC1=O (mixture of isomers) [Example 209, (rac,cis)-1-[(E)-3-(3-Chloro-4-fluoro-phenyl)-acryloyl]-4-[3-(3-hydroxy-2-methyl-piperidin-1-yl)-propyl]-[1,4]diazepan-5-one] |
| 230 | C[C@@H]1CCN(CCCCN2CCN(C(=O)/C=C/c3ccc(Cl)c(Cl)c3)CCC2=O)C[C@H]1O (racemic) [Example 454, (rac)-1-[(E)-3-(3,4-Dichloro-phenyl)-acryloyl]-4-[4-(trans-3-hydroxy-4-methyl-piperidin-1-yl)-butyl]-[1,4]diazepan-5-one] |
| 354 | CC1(CO)CCCN(CCCCN2CCN(C(=O)/C=C/c3ccc(Cl)c(Cl)c3)CCC2=O)C1 (racemic) [Example 445] |
| 311 | COC1CCCN(CC(O)CN2CCN(C(=O)/C=C/c3ccc(Cl)c(Cl)c3)CCC2=O)C1 (racemic) [Example 283] |
| 243 | O=C(/C=C/c1ccc(Cl)c(Cl)c1)N1CCC(=O)N(CCCCN2CCC(O)C(CO)C2)CC1 (racemic) [Example 450, (rac)-1-[(E)-3-(3,4-Dichloro-phenyl)-acryloyl]-4-[4-(4-hydroxy-3-hydroxymethyl-piperidin-1-yl)-butyl]-[1,4]diazepan-5-one] |
| 198 | O=C(/C=C/c1ccc(F)c(Cl)c1)N1CCC(=O)N(CCCCN2CCCC(O)C2)CC1 (racemic) [Example 383] |
| 192 | CC1(CO)CCCN(CC(O)CN2CCN(C(=O)/C=C/c3ccc(Cl)c(Cl)c3)CCC2=O)C1 (racemic) [Example 305] |
| 765 | O=C(/C=C/c1ccc(Cl)c(Cl)c1)N1CCC(=O)N(CCCN2CCN(C3CC3)CC2)CC1 [Example 241] |
| 697 | CC1CCN(CC(O)CCN2CCN(C(=O)/C=C/c3ccc(Cl)c(Cl)c3)CCC2=O)CC1 (racemic) [Example 377] |
| 150 | O=C(/C=C/c1ccc(Cl)c(Cl)c1)N1CCC(=O)N(CCCN2CCCCC2)CC1 [Example 4, 1-[(E)-3-(3,4-Dichloro-phenyl)-acryloyl]-4-(3-piperidin-1-yl-propyl)-[1,4]diazepan-5-one] |
| 873 | CC1CN(CC(O)CCN2CCN(C(=O)/C=C/c3ccc(Cl)c(Cl)c3)CCC2=O)CCC1O (racemic) [Example 358] |
| 614 | CCN(CCO)CCCCN1CCN(C(=O)/C=C/c2ccc(Cl)c(Cl)c2)CCC1=O [Example 461] |
| 656 | COC(=O)NC1CCN(CCCN2CCN(C(=O)/C=C/c3ccc(F)c(Cl)c3)CCC2=O)CC1 [Example 201] |
| 283 | O=C(/C=C/c1ccc(Cl)c(Cl)c1)N1CCC(=O)N(CCCCN2CCC(O)C3(CC3)C2)CC1 (racemic) [Example 457] |
| 155 | CC1(C)CCN(C[C@H](O)CCN2CCN(C(=O)/C=C/c3ccc(Cl)c(Cl)c3)CCC2=O)CC1O (stereo partly shown) [Example 501] |
| 369 | O=C(/C=C/c1ccc(Cl)c(Cl)c1)N1CCC(=O)N(CCCCN2CCN(C3CCCC3)CC2)CC1 [Example 438] |

| IC50 [nM] | Molecule |
| --- | --- |
| 52 | CC1(C)CCN(CCCCN2CCN(C(=O)/C=C/c3ccc(Cl)c(F)c3)CCC2=O)CC1O (racemic) [Example 420] |
| 523 | O=C(/C=C/c1ccc(Cl)c(Cl)c1)N1CCC(=O)N(CCN[C@H]2CC[C@H](O)CC2)CC1 [Example 106, trans-1-[(E)-3-(3,4-Dichloro-phenyl)-acryloyl]-4-[2-(4-hydroxy-cyclohexylamino)-ethyl]-[1,4]diazepan-5-one] |
| 38 | C[C@@H]1CN(CCCN2CCCCC2)C(=O)CCN1C(=O)/C=C/c1ccc(Cl)c(Cl)c1 [Example 186, (R)-1-[(E)-3-(3,4-Dichloro-phenyl)-acryloyl]-2-methyl-4-(3-piperidin-1-yl-propyl)-[1,4]diazepan-5-one] |
| 8 | O=C(/C=C/c1ccc(F)c(Cl)c1)N1CCC(=O)N(CCCN2CCC3(CC3)C(O)C2)CC1 (stereo not drawn) [Example 189, 1-[(E)-3-(3-Chloro-4-fluoro-phenyl)-acryloyl]-4-[3-((-)-4-hydroxy-6-aza-spiro[2.5]oct-6-yl)-propyl]-[1,4]diazepan-5-one] |
| 421 | CC(C)N1CCN(CCCN2CCN(C(=O)/C=C/c3ccc(Cl)c(Cl)c3)CCC2=O)CC1C (racemic) [Example 246, (rac)-1-[(E)-3-(3,4-Dichloro-phenyl)-acryloyl]-4-[3-(4-isopropyl-3-methyl-piperazin-1-yl)-propyl]-[1,4]diazepan-5-one] |
| 370 | O=C(/C=C/c1ccc(Cl)c(Cl)c1)N1CCC(=O)N(CCCCN2CCOCC2)CC1 [Example 155, 1-[(E)-3-(3,4-Dichloro-phenyl)-acryloyl]-4-(4-morpholin-4-yl-butyl)-[1,4]diazepan-5-one] |
| 644 | O=C(/C=C/c1ccc(Cl)c(Cl)c1)N1CCC(=O)N(CC(O)CN2CCC(O)CC2)CC1 (stereo not shown) [Example 285] |
| 1500 | O=C(/C=C/c1ccc(Cl)c(Cl)c1)N1CCC(=O)N(CCC(O)CN2CCC(CO)CC2)CC1 (racemic) [Example 379] |
| 756 | O=C(/C=C/c1ccc(OCc2ccccc2)cc1)N1CCC(=O)N(CCN2CCCC2)CC1 [Example 17, 1-[(E)-3-(4-Benzyloxy-phenyl)-acryloyl]-4-(2-pyrrolidin-1-yl-ethyl)-[1,4]diazepan-5-one] |
| 98 | O=C(/C=C/c1ccc(Cl)c(Cl)c1)N1CCC(=O)N(CCCN2CCC(F)(F)CC2)CC1 [Example 55, 1-[(E)-3-(3,4-Dichloro-phenyl)-acryloyl]-4-[3-(4,4-difluoro-piperidin-1-yl)-propyl]-[1,4]diazepan-5-one] |
| 363 | O=C(/C=C/c1ccc(F)c(Cl)c1)N1CCC(=O)N(CCCN2CCCC(CO)C2)CC1 (racemic) [Example 211] |
| 165 | CC1CCCCN1CCCN1CCN(C(=O)/C=C/c2ccc(Cl)c(Cl)c2)CCC1=O (racemic) [Example 62, (+/−)-1-[(E)-3-(3,4-Dichloro-phenyl)-acryloyl]-4-[3-(2-methyl-piperidin-1-yl)-propyl]-[1,4]diazepan-5-one] |
| 149 | O=C(/C=C/c1ccc(Cl)c(Cl)c1)N1CCC(=O)N(CCCN2CCCC(CO)C2)CC1 (racemic) [Example 228] |
| 746 | CC(C)N1CCN(CCCCN2CCN(C(=O)/C=C/c3ccc(Cl)c(Cl)c3)CCC2=O)CC1 [Example 436] |
| 55 | CC1CCN(CCCN2CCN(C(=O)/C=C/c3ccc(Cl)c(Cl)c3)CCC2=O)CC1 [Example 50, 1-[(E)-3-(3,4-Dichloro-phenyl)-acryloyl]-4-[3-(4-methyl-piperidin-1-yl)-propyl]-[1,4]diazepan-5-one] |
| 619 | CO[C@@H]1CN(CCCN2CCN(C(=O)/C=C/c3ccc(Cl)c(Cl)c3)CCC2=O)CC[C@@H]1CO (racemic) [Example 269, (rac,cis)-1-[(E)-3-(3,4-Dichloro-phenyl)-acryloyl]-4-[3-(3-methoxy-4-hydroxymethyl-piperidin-1-yl)-propyl]-[1,4]diazepan-5-one] |

| Molecule | IC50 [nM] |
| --- | --- |
| 4-(3-{4-[(E)-3-(3,4-Dichloro-phenyl)-acryloyl]-7-oxo-[1,4]diazepan-1-yl}-propylamino)-cyclohexanecarboxylic acid ethyl ester [Example 67] | 241 |
